Test results: US12578336B2, “ATP detection” (Promega Corporation, priority 2022, dated 2026)
Entries after “also recorded” stand apart in the source; their conditions may differ.

Legend:
[1] = target: T1, Pp-apyrase (Phlebotomus papatasi, UniProt Q9GTP7); test: Inactivation of Pp-apyrase by EGTA in cell lysis/ATP detection reagent, tube format; format: biochemical; conditions: 10 mM EGTA in cell lysis/ATP detection reagent
T1 construct: GST (glutathione S transferase); made in house; host or cells: E. coli
T1 sequence (Q9GTP7 22-336 limits assumed): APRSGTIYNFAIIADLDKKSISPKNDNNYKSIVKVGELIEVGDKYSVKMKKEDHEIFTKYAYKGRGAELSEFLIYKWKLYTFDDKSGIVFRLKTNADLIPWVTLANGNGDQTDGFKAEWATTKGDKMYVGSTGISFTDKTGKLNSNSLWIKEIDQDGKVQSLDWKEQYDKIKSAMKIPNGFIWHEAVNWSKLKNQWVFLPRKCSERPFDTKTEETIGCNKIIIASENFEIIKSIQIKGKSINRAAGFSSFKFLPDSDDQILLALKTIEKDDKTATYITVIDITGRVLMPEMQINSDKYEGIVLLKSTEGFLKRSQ
Protocol: Luminescent signals were measured over time starting immediately after addition of the lysis/ATP detection reagent. Reactions were performed in microcentrifuge-style tubes and analyzed for luminescence on a single tube reading luminometer (GloMax® 20/20, Promega Corp.).
Reactions were performed in microcentrifuge-style tubes and analyzed for luminescence on a single tube reading luminometer (GloMax® 20/20, Promega Corp.).

[2] = target: T2, ENPP1 (Homo sapiens, UniProt P22413); test: ENPP1 ATP degradation and its inhibition by chelators/inhibitor, Kinase-Glo; format: biochemical
T2 sequence (P22413 1-925): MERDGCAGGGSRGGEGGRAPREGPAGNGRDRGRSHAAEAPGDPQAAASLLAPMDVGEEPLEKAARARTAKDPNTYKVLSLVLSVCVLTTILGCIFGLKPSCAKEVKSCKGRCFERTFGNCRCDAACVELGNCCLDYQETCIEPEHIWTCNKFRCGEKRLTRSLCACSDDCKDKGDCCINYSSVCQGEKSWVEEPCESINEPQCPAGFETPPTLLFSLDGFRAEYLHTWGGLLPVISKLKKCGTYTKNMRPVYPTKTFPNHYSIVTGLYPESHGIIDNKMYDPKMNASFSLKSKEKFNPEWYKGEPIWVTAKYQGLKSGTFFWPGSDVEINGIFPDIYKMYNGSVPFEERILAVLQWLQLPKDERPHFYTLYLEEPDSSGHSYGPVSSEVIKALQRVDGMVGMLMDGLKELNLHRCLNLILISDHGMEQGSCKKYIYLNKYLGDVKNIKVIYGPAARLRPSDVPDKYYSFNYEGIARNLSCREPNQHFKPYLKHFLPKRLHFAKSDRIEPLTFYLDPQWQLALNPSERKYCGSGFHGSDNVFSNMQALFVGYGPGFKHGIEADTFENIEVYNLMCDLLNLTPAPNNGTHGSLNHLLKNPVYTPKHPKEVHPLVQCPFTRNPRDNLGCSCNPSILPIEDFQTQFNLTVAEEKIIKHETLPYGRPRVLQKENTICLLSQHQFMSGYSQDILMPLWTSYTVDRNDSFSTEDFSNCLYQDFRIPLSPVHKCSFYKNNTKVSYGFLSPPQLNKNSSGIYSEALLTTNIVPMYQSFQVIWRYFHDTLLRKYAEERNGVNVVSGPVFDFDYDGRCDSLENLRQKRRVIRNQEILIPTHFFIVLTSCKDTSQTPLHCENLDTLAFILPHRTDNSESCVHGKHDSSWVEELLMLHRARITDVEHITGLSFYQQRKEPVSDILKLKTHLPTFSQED
Protocol: ENPP1 converts ATP to AMP and pyrophosphate, is zinc-dependent, and is inactivated by EGTA, by the zinc chelator N,N,N′,N′-Tetrakis (2 pyridylmethyl) ethylenediamine (TPEN), and by certain small molecule inhibitors.
ENPP1 (100 ng/reaction) was incubated with 10 μM ATP and varying amounts of chelators (EGTA, TPEN) or an ENPP1 selective inhibitor called inhibitor C in a reaction buffer containing 50 mM Tris HCl, pH 7.5, 250 mM NaCl, 5 uM ZnCl2, 0.1 mg/ml BSA. The reactions were allowed to proceed for 60 minutes.

[3] = test system: St-apyrase (Ca2+/Mg2+ apyrase from potato); test: Inhibition of St-apyrase by EGTA, luminescence over time; format: biochemical, Solanum tuberosum; conditions: same amount of EGTA; luminescence declined over time
Description: (§1) The Ca^2+/Mg^2+ apyrase from potato, Solanum tuberosum (St-apyrase), is the most commonly used apyrase for ATP elimination. However, its inactivation requires measures, such as high temperature or extreme pH treatment, which are incompatible with the simple cartridge design disclosed here. The need for an extended heating time for apyrase inactivation is also incompatible with the goal of rapid sample collection and analysis. […] Cl- and St-apyrase were compared for their capacity to remove extracellular ATP and to be inhibited by the Ca^2+-selective chelator EGTA. Mg^2+ is critical for luciferase activity so the Mg^2+-selective chelator EDTA was not tested. In the absence of EGTA, both enzymes eliminated ATP as indicated by a time-dependent decrease in luminescence (FIG. 3).

[4] = target: T1, Pp-apyrase; test: Inhibition of Pp-apyrase by EGTA in cartridge format; format: biochemical; conditions: EGTA in lysis/ATP detection reagent, after an initial ATP elimination step
Protocol: Apyrase from the sandfly Phlebotomus papatasi (Pp-apyrase) was also characterized for use in an exemplary cartridge format. […] Empty plastic cartridges were obtained from Empire Bio Diagnostics. […] 20 second exposures of ATP in swab tips were followed by immersion of the swab tips in the cartridge receptacle in the ATP detection/cell lysis formulation with 10 mM EGTA described for FIG. 6, and then insertion of the cartridge receptacle in a handheld luminometer (luminometer prototype by Empire Bio Diagnostics). […] A portion of the values shown above the vertical axis represent luminescent values too low to be visible as bars on the graph.

[5] = target: T3, Cl-apyrase (Ca-apyrase) (Cimex lectularius, UniProt O96559); test: Inhibition of Cl-apyrase by EGTA, luminescence over time; format: biochemical; conditions: EGTA present; decline of luminescence over time
T3 construct: His tag; made in house; host or cells: E. coli
T3 sequence (O96559 36-364 limits assumed): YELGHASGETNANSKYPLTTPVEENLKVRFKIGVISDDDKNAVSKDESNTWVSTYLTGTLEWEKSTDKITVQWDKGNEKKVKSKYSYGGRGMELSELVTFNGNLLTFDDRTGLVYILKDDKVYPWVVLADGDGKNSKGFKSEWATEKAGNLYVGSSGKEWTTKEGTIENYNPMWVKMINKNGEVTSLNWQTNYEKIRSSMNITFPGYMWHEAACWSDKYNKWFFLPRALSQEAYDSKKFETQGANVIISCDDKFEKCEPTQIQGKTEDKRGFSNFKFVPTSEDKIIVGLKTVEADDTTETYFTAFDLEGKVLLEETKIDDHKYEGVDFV
Description: as §1

Molecule: O=C(O)CN(CCOCCOCCN(CC(=O)O)CC(=O)O)CC(=O)O [EGTA]
- inactivation of Pp-apyrase (in words) [1]: effectively inactivated; also recorded: substantially inactivated
- inactivation of ENPP1 (in words) [2]: inactivated
- St-apyrase inhibition in the presence of EGTA (in words) [3]: only partially inhibited
- inhibition of Pp-apyrase in cartridge format (in words) [4]: effective
- Cl-apyrase activity in the presence of EGTA (in words) [5]: no Cl-apyrase activity was detected; also recorded: substantially inactivated

Molecule: c1ccc(CN(CCN(Cc2ccccn2)Cc2ccccn2)Cc2ccccn2)nc1 [TPEN, N,N,N′,N′-Tetrakis (2 pyridylmethyl) ethylenediamine]
- inactivation of ENPP1 (in words) [2]: inactivated

B1: ENPP1: zinc-dependent enzyme that converts ATP to AMP and pyrophosphate (protein, UniProt P22413 1-925, looked up)
Ectonucleotide …: MERDGCAGGGSRGGEGGRAPREGPAGNGRDRGRSHAAEAPGDPQAAASLLAPMDVGEEPLEKAARARTAKDPNTYKVLSLVLSVCVLTTILGCIFGLKPSCAKEVKSCKGRCFERTFGNCRCDAACVELGNCCLDYQETCIEPEHIWTCNKFRCGEKRLTRSLCACSDDCKDKGDCCINYSSVCQGEKSWVEEPCESINEPQCPAGFETPPTLLFSLDGFRAEYLHTWGGLLPVISKLKKCGTYTKNMRPVYPTKTFPNHYSIVTGLYPESHGIIDNKMYDPKMNASFSLKSKEKFNPEWYKGEPIWVTAKYQGLKSGTFFWPGSDVEINGIFPDIYKMYNGSVPFEERILAVLQWLQLPKDERPHFYTLYLEEPDSSGHSYGPVSSEVIKALQRVDGMVGMLMDGLKELNLHRCLNLILISDHGMEQGSCKKYIYLNKYLGDVKNIKVIYGPAARLRPSDVPDKYYSFNYEGIARNLSCREPNQHFKPYLKHFLPKRLHFAKSDRIEPLTFYLDPQWQLALNPSERKYCGSGFHGSDNVFSNMQALFVGYGPGFKHGIEADTFENIEVYNLMCDLLNLTPAPNNGTHGSLNHLLKNPVYTPKHPKEVHPLVQCPFTRNPRDNLGCSCNPSILPIEDFQTQFNLTVAEEKIIKHETLPYGRPRVLQKENTICLLSQHQFMSGYSQDILMPLWTSYTVDRNDSFSTEDFSNCLYQDFRIPLSPVHKCSFYKNNTKVSYGFLSPPQLNKNSSGIYSEALLTTNIVPMYQSFQVIWRYFHDTLLRKYAEERNGVNVVSGPVFDFDYDGRCDSLENLRQKRRVIRNQEILIPTHFFIVLTSCKDTSQTPLHCENLDTLAFILPHRTDNSESCVHGKHDSSWVEELLMLHRARITDVEHITGLSFYQQRKEPVSDILKLKTHLPTFSQED
- conditionally active ATP eliminating properties (in words) ([2]; ENPP1 100 ng/reaction, 10 μM ATP, 60 minutes, 5 uM ZnCl2): qualitatively demonstrated the conditionally active ATP eliminating properties
